Data on five molecules can be found in ChEMBL document CHEMBL5727525, “4,5-substituted picolinamide and picolinonitrile metabotropic glutamate receptor 2 negative allosteric modulators” (2020).

The structures appear in SMILES notation. Some results are limits rather than exact numbers.

This assay in a line: Ca2+ Flux Assay: GÎ±15 HEK293 cells stably expressing rat mGlu2 were plated in black-walled, clear-bottomed, poly-D-lysine coated 384-well plates in 20 Î¼L of assay medium (DMEM containing 10% dialyzed FBS, 20 mM HEPES, and 1 mM sodium pyruvate) at a density of 12K cells/well. The cells were grown overnight at 37° C. in the presence of 5% CO2. The next day, medium was removed and the cells incubated with 20 Î¼L of 2.3 Î¼M Fluo-4, AM prepared as a 2.3 mM stock in DMSO and mixed in a 1:1 ratio with 10% (w/v) pluronic acid F-127 and diluted in assay buffer (Hank's balanced salt solution, 20 mM HEPES, and 2.5 mM probenecid) for 45 minutes at 37° C. Dye was removed, 20 Î¼L of assay buffer was added, and the plate was incubated for 5 minutes at room temperature. On the technique in general: Calcium assays in cells follow changes in intracellular calcium, usually with a dye or a luminescent sensor.
Consider `Cn1cc(-c2cc(C(N)=O)ncc2OCc2ccc(C(F)(F)F)nc2)cn1`, for which the IC50 (as a rule, the midpoint of a concentration-inhibition curve) is above 10 µM.

`C[C@@H]1CN(CCCOc2cnc(C(N)=O)cc2-c2ccc(F)cc2)C[C@H](C)O1`: the half-inhibitory concentration (IC50) was above 10 µM.

In the case of `C[C@@H]1CN(CCOc2cnc(C(N)=O)cc2-c2ccc(F)cc2)C[C@H](C)O1`, the IC50 is above 10 µM.

With `NC(=O)c1cc(-c2ccc(F)cc2)c(OCCOc2ccccc2F)cn1`, the IC50 is 2.01 µM.

Turning to `C[C@@H]1CN(CCOc2cnc(C#N)cc2-c2ccc(F)cc2)C[C@H](C)O1`, the IC50 was above 30 µM.
